Reference: patent US10791742B2, “Plant growth regulator compounds” (SYNGENTA PARTICIPATIONS AG, priority 2016, dated 2020)

How the values were obtained:
[1] = test system: corn plants (variety NK OCTET); assay: Reduced plant water use in corn (foliar spray, pot weighing); assay type: in vivo; conditions: for % WU 0 DAA (PM): Table A3 (comparison trial), 0 DAA p.m.
Experimental: (§1) Compounds were tested for their effect on reducing plant water use as follows. The compounds were applied by foliar spray to 12 day old corn plants (variety NK OCTET) grown in controlled environment plant growth chambers. All compounds were applied using an emulsifiable concentrate (EC) formulation that was diluted to the desired concentrations with water containing 0.4% of the adjuvant rape seed methyl ester. Plant water use during the day was assessed by repeated weighing of the pots in which the plants were grown before and after application of the compounds at the indicated times (expressed in days after application (DAA)). The water use data before application was used to correct any differences in water use arising due to non-treatment effects (e.g. due to differences in plant size). The untransformed water use values were subjected to an analysis of covariance, fitting the effect of treatment and using the baseline water use 1 day before application as a covariate. Application of the chemicals (0 DAA) took place approximately between 08:00 and 09:30 a.m. Water use (WU) was measured within day time (chamber light is on 06:00 to 20:00) at these timepoints: 0 DAA a.m. (10:30-12:50), 0 DAA p.m. (14:00-19:50).

[2] = test system: soybean plants (variety S20-G7); assay: Reduced plant water use in soybean (foliar spray, pot weighing); assay type: in vivo; conditions: Table A4, 125 μM foliar spray, water use vs negative control, average of 6 pots; for % WU 0 DAA (AM): 0 DAA a.m. (10:30-12:50); for % WU 0 DAA (PM): 0 DAA p.m. (14:00-19:50)
Experimental: as §1, with “soybean” for “corn”, “S20-G7)” for “NK OCTET)”, “concentration” for “concentrations”, “additional surfactant (EXTRAVON 1 g/20 L).” for “0.4% of the adjuvant rape seed methyl ester.”, “covariate.” for “covariate. Application of the chemicals (0 DAA) took place approximately between 08:00 and 09:30 a.m. Water use (WU) was measured within day time (chamber light is on 06:00 to 20:00) at these timepoints: 0 DAA a.m. (10:30-12:50), 0 DAA p.m. (14:00-19:50).”
Application of the chemicals (0 DAA) took place approximately between 08:00 and 09:30 a.m. Water use (WU) was measured within day time (chamber light is on 06:00 to 20:00) at these timepoints: 0 DAA a.m. (10:30-12:50), 0 DAA p.m. (14:00-19:50).

[3] = corn, 500 μM foliar spray, water use vs negative control, average of 6 pots

Compound | % WU 0 DAA (PM) [1, 3] [%] | % WU 0 DAA (AM) [2] [%] | % WU 0 DAA (PM) [2] [%] | further results
CCN1C(=O)OC(C)c2cc(CNS(=O)(=O)c3ccccc3)ccc21 (centres unmarked) [Compound 13.001, N-[(1-ethyl-4-methyl-2-oxo-4H-3,1-benzoxazin-6-yl)methyl]-benzenesulfonamide] | −40 |  |  | ABA agonist potency compared with compound A (in words) ([1]; concluded from Table A3, corn water use at 500 μM): more potent ABA agonist than dihydroquinolinone compound A
CCCN1C(=O)OC(C)c2cc(CNS(=O)(=O)c3ccccc3)cc(F)c21 (centres unmarked) [Compound 25.001, N-[(8-fluoro-4-methyl-2-oxo-1-propyl-4H-3,1-benzoxazin-6-yl)methyl]benzenesulfonamide] |  | −48 | −53 | 
CCN1C(=O)OC(C)c2cc(CNS(=O)(=O)c3ccccc3)cc(F)c21 (centres unmarked) [Compound 20.001, N-[(1-ethyl-8-fluoro-4-methy1-2-oxo-4H-3,1-benzoxazin-6-yl)methyl]benzenesulfonamide] |  |  |  | % WU 0 DAA (AM) ([1]; Table A2 (further trial), corn, 500 μM foliar spray, water use vs negative control, 0 DAA a.m. (10:30-12:50), average of 6 pots): −37%; % WU ODAA (PM) ([1]; Table A2 (further trial), corn, 500 μM foliar spray, water use vs negative control, 0 DAA p.m. (14:00-19:50), average of 6 pots): −42%
CCCN1C(=O)OC(C)c2cc(CNS(=O)(=O)c3ccc(Cl)s3)ccc21 (centres unmarked) [Compound 14.048, 5-chloro-N-[(4-methyl-2-oxo-1-propyl-4H-3,1-benzoxazin-6-yl)methyl]thiophene-2-sulfonamide] |  | −51 | −55 | 
CCCN1C(=O)OC(C)c2cc(CNS(=O)(=O)c3ccccc3)ccc21 (centres unmarked) [Compound 14.001, N-[(4-methyl-2-oxo-1-propyl-4H-3,1-benzoxazin-6-yl)methyl]-benzenesulfonamide] |  | −49 | −55 | 
CCN1C(=O)CC(C)c2cc(CNS(=O)(=O)c3ccccc3)ccc21 (centres unmarked) [A, reference compound] | −24 |  |  | 
